From ChEMBL document CHEMBL4420076, “Amylin and calcitonin receptor agonist” (2017)
Numbered stars: 1 amine (or outer) side, 2 acyl side, 3 side chain; on linkers, the order of the positions; unused ones are H or OH. Peptide text beside a SMILES is read from it. * marks the point of attachment. C20 diacid = O=C(O)CCCCCCCCCCCCCCCCCCC(=O)*; C18 diacid = O=C(O)CCCCCCCCCCCCCCCCC(=O)*; γGlu = O=C(O)[C@H](CCC(=O)[*:2])N[*:1]; AEEA = NCCOCCOCC(=O)O

Key:
[1] = Terminal half life in Sprague-Dawley rat at 20 nmol/kg, sc by LC-MS analysis; format: ADME, organism-based; details: in vivo, read-out: beta t1/2 (converted)
Rattus norvegicus [2] = assay: Reduction in food intake in Sprague-Dawley rat at 3 nmol/kg measured 0 to 24 hrs post dose relative to control; format: functional; set-up: scale not given: the % may be the effect or the level left
Rattus norvegicus [3] = assay: Reduction in food intake in Sprague-Dawley rat at 3 nmol/kg measured 24 to 48 hrs post dose relative to control; format: functional; set-up: scale not given: the % may be the effect or the level left
[4] = molecular target: T1, Amylin receptor AMY3; CALCR/RAMP3 (Homo sapiens, UniProt O60896+P30988); assay: Agonist activity at human amylin receptor expressed in BHK570 cells co-expressing RAMP3 assessed as increase in intracellular cAMP concentration incubated for 3 hrs in absence of albumin by CRE luciferase reporter gene assay; format: functional, cell-based
T1 sequence (P30988 whole entry): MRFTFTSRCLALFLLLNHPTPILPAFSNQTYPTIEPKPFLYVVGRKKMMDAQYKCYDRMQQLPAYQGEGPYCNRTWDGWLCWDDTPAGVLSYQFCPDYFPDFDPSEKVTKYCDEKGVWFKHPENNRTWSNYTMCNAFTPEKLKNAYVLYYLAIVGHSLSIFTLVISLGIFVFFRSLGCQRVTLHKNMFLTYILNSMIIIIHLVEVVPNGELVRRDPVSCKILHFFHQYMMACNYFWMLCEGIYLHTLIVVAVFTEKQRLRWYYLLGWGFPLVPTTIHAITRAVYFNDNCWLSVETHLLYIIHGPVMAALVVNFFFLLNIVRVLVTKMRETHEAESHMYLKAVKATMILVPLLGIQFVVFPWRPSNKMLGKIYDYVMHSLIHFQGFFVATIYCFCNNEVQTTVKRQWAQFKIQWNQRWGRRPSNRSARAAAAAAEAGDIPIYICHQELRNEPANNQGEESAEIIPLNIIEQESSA
T1 sequence (O60896 whole entry): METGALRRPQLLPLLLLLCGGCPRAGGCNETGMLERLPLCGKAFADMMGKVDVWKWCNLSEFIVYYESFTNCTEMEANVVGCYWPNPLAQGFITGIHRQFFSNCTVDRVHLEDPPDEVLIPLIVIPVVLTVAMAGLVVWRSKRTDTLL

Calcitonin receptor [5] = molecular target: T2, Calcitonin receptor (Homo sapiens, UniProt P30988); assay: Agonist activity at human calcitonin receptor expressed in BHK570 cells assessed as increase in intracellular cAMP concentration incubated for 3 hrs in absence of albumin by CRE luciferase reporter gene assay; format: functional, cell-based
T2 sequence (P30988 whole entry): T1 sequence (P30988 whole entry)

[6] = molecular target: T1, Amylin receptor AMY3; CALCR/RAMP3; assay: Agonist activity at human amylin receptor expressed in BHK570 cells co-expressing RAMP3 assessed as increase in intracellular cAMP concentration incubated for 3 hrs in presence of 10% FBS by CRE luciferase reporter gene assay; format: functional, cell-based
Calcitonin receptor [7] = molecular target: T2, Calcitonin receptor; assay: Agonist activity at human calcitonin receptor expressed in BHK570 cells assessed as increase in intracellular cAMP concentration incubated for 3 hrs in presence of 10% FBS by CRE luciferase reporter gene assay; format: functional, cell-based
[8] = Stability in pH 7.5 buffer assessed as lag time for fibril formation at 1 uM by Thioflavin T based fluorescence assay; format: physicochemical; details: pH 7.5, 1 µM
[9] = Stability in pH 7.5 buffer assessed as compound recovery at 1 uM by Thioflavin T based fluorescence assay; format: physicochemical; details: read-out: Drug recovery
[10] = Solubility in 100 mM glycylglycine buffer at pH 3.0 incubated for 18 hrs by UPLC analysis; format: physicochemical
[11] = Solubility in 100 mM glycylglycine buffer at pH 4.0 incubated for 18 hrs by UPLC analysis; format: physicochemical
[12] = Solubility in 100 mM bistrispropane buffer at pH 6.0 incubated for 18 hrs by UPLC analysis; format: physicochemical
[13] = Solubility in 100 mM glycylglycine buffer at pH 5.0 incubated for 18 hrs by UPLC analysis; format: physicochemical
[14] = Solubility in 100 mM bistrispropane buffer at pH 6.5 incubated for 18 hrs by UPLC analysis; format: physicochemical
[15] = Solubility in 100 mM bistrispropane buffer at pH 7.0 incubated for 18 hrs by UPLC analysis; format: physicochemical
[16] = Solubility in 100 mM bistrispropane buffer at pH 7.5 incubated for 18 hrs by UPLC analysis; format: physicochemical
[17] = Solubility in 100 mM bistrispropane buffer at pH 8.0 incubated for 18 hrs by UPLC analysis; format: physicochemical
[18] = Half life in LYD pig at 1.6 mM, sc co-formulated with 1.6 mM liraglutide by LC-MS analysis; format: ADME, organism-based, Sus scrofa; details: in vivo
[19] = Dose normalized AUC in LYD pig at 1.6 mM, sc co-formulated with 1.6 mM liraglutide by LC-MS analysis; format: ADME, organism-based, Sus scrofa; details: in vivo, 1600 µM
[20] = Half life in LYD pig at 1.6 mM, sc co-dosed with 1.6 mM liraglutide by LC-MS analysis; format: ADME, organism-based, Sus scrofa; details: in vivo
[21] = Dose normalized AUC in LYD pig at 1.6 mM, sc co-dosed with 1.6 mM liraglutide by LC-MS analysis; format: ADME, organism-based, Sus scrofa; details: in vivo, 1600 µM
[22] = molecular target: T1, Amylin receptor AMY3; CALCR/RAMP3; assay: Displacement of [125I]-labeled rat amylin from human amylin receptor expressed in BHK570 cell membranes co-expressing RAMP3 incubated for 120 mins by scintillation proximity assay
Calcitonin receptor [23] = molecular target: T2, Calcitonin receptor; assay: Displacement of [125I]-labeled human calcitonin from human calcitonin receptor expressed in BHK tkts13 cell membranes incubated for 1 hr by scintillation proximity assay
[24] = molecular target: T1, Amylin receptor AMY3; CALCR/RAMP3; assay: Displacement of [125I]-labeled rat amylin from human amylin receptor expressed in BHK tkts13 whole cells co-expressing RAMP3 incubated for 60 mins by scintillation proximity assay; format: cell-based
Calcitonin receptor [25] = molecular target: T2, Calcitonin receptor; assay: Displacement of [125I]-labeled human calcitonin from human calcitonin receptor expressed in BHK tkts13 whole cells incubated for 60 mins by scintillation proximity assay; format: cell-based
Rattus norvegicus [26] = assay: Reduction in body weight in Sprague-Dawley rat model of diet-induced obesity assessed as relative body weight at 0.1 mg/kg, sc dosed dosed once daily during 0 to 28 days and measured on day 28 relative to initial body weight (reference value: 99.8 +.- 1.1%); format: functional; set-up: scale not given: the % may be the effect or the level left

Row | SMILES | EC50 [4] [nM] | EC50 (Calcitonin receptor [5]) [nM] | EC50 [6] [nM] | EC50 (Calcitonin receptor [7]) [nM] | Time [8] [h] | remaining at 1 µM [9] [%] | solubility at 18 h [10] [µM] | solubility at 18 h [11] [µM] | solubility at 18 h [12] [µM] | solubility at 18 h [13] [µM] | solubility at 18 h [14] [µM] | solubility at 18 h [15] [µM] | solubility at 18 h [16] [µM] | solubility at 18 h [17] [µM] | other results
1 | CC(C)C[C@H](NC(=O)[C@H](CCCCN)NC(=O)CNC(=O)[C@H](CC(C)C)NC(=O)[C@@H](NC(=O)[C@H](CS)NC(=O)[C@@H](NC(=O)[C@H](CO)NC(=O)[C@H](CC(C)C)NC(=O)[C@H](CC(N)=O)NC(=O)[C@H](CO)NC(=O)[C@@H](N)CS)[C@@H](C)O)C(C)C)C(=O)N[C@@H](CO)C(=O)N[C@@H](CCC(N)=O)C(=O)N[C@@H](CCC(=O)O)C(=O)N[C@@H](CC(C)C)C(=O)N[C@@H](Cc1cnc[nH]1)C(=O)N[C@@H](CCCCN)C(=O)N[C@@H](CC(C)C)C(=O)N[C@@H](CCC(N)=O)C(=O)N[C@H](C(=O)N[C@@H](Cc1ccc(O)cc1)C(=O)N1CCC[C@H]1C(=O)N[C@@H](CCCNC(=N)N)C(=O)N[C@H](C(=O)N[C@@H](CC(N)=O)C(=O)N[C@H](C(=O)NCC(=O)N[C@@H](CO)C(=O)NCC(=O)N[C@H](C(=O)N1CCC[C@H]1C(=O)O)[C@@H](C)O)[C@@H](C)O)[C@@H](C)O)[C@@H](C)O |  |  |  |  |  |  |  |  |  |  |  |  |  |  | half-life [1]: 1 h
2 | CC(C)C[C@H](NC(=O)[C@H](C)NC(=O)[C@H](C)NC(=O)[C@@H](NC(=O)[C@H](CO)NC(=O)[C@H](CC(C)C)NC(=O)[C@H](CCC(=O)O)NC(=O)[C@H](CO)NC(=O)[C@H](C)NC(=O)CC[C@H](NC(=O)CCCCCCCCCCCCCCCCC(=O)O)C(=O)O)[C@@H](C)O)C(=O)NCC(=O)N[C@@H](CCCNC(=N)N)C(=O)N[C@@H](CC(C)C)C(=O)N[C@@H](CO)C(=O)N[C@@H](C)C(=O)N[C@@H](CCC(=O)O)C(=O)N[C@@H](CC(C)C)C(=O)N[C@@H](Cc1cnc[nH]1)C(=O)N[C@@H](CCC(=O)O)C(=O)N[C@@H](CC(C)C)C(=O)N[C@@H](C)C(=O)N[C@H](C(=O)N[C@@H](CC(C)C)C(=O)N1CCC[C@H]1C(=O)N[C@@H](CCCNC(=N)N)C(=O)N[C@H](C(=O)N[C@@H](CCC(=O)O)C(=O)N[C@H](C(=O)NCC(=O)N[C@@H](CO)C(=O)NCC(=O)N[C@@H](CO)C(=O)N1CCC[C@H]1C(N)=O)[C@@H](C)O)[C@@H](C)O)[C@@H](C)O ({C18 diacid-γGlu}-ASELSTAALGRLSAELHELATLPRTETGSGSP-NH2) | 0.016 | 0.017 | 0.026 | 0.011 | > 45 | 100 | ≥ 200 | ≥ 200 | ≥ 200 | ≥ 200 | ≥ 200 | ≥ 200 | ≥ 200 | ≥ 200 | Activity (Rattus norvegicus [2]): 82%; Activity (Rattus norvegicus [3]): 78%; half-life at 1600 µM [18]: 133 h; AUC/dose [19]: 656 kg·h/L; half-life at 1600 µM [20]: 129 h; AUC/dose [21]: 624 kg·h/L
3 | CC(C)C[C@H](NC(=O)[C@H](C)NC(=O)[C@H](C)NC(=O)[C@@H](NC(=O)[C@H](CO)NC(=O)[C@H](CC(C)C)NC(=O)[C@H](CCC(=O)O)NC(=O)[C@H](CO)NC(=O)[C@H](C)NC(=O)COCCOCCNC(=O)COCCOCCNC(=O)COCCOCCNC(=O)CC[C@H](NC(=O)CCCCCCCCCCCCCCCCCCC(=O)O)C(=O)O)[C@@H](C)O)C(=O)NCC(=O)N[C@@H](CCCNC(=N)N)C(=O)N[C@@H](CC(C)C)C(=O)N[C@@H](CO)C(=O)N[C@@H](C)C(=O)N[C@@H](CCC(=O)O)C(=O)N[C@@H](CC(C)C)C(=O)N[C@@H](Cc1cnc[nH]1)C(=O)N[C@@H](CCC(=O)O)C(=O)N[C@@H](CC(C)C)C(=O)N[C@@H](C)C(=O)N[C@H](C(=O)N[C@@H](CC(C)C)C(=O)N1CCC[C@H]1C(=O)N[C@@H](CCCNC(=N)N)C(=O)N[C@H](C(=O)N[C@@H](CCC(=O)O)C(=O)N[C@H](C(=O)NCC(=O)N[C@@H](CO)C(=O)NCC(=O)N[C@@H](CO)C(=O)N1CCC[C@H]1C(N)=O)[C@@H](C)O)[C@@H](C)O)[C@@H](C)O ({C20 diacid-γGlu-AEEA-AEEA-AEEA}-ASELSTAALGRLSAELHELATLPRTETGSGSP-NH2) | 0.018 | 0.011 | 0.068 | 0.025 | > 45 | 100 | ≥ 200 | ≥ 200 | ≥ 200 | ≥ 200 | ≥ 200 | ≥ 200 | ≥ 200 | ≥ 200 | IC50 [22]: 0.164 nM; IC50 (Calcitonin receptor [23]): 0.05 nM; IC50 [24]: 0.432 nM; IC50 (Calcitonin receptor [25]): 0.352 nM
4 | CCCCCCCCCCCCCCCC(=O)N[C@@H](CCC(=O)NCCCC[C@H](NC(=O)[C@H](C)NC(=O)[C@H](C)NC(=O)[C@H](CCC(N)=O)NC(=O)CNC(=O)[C@H](CCC(=O)O)NC(=O)[C@H](CC(C)C)NC(=O)[C@H](Cc1ccc(O)cc1)NC(=O)[C@H](CO)NC(=O)[C@H](CO)NC(=O)[C@@H](NC(=O)[C@H](CC(=O)O)NC(=O)[C@H](CO)NC(=O)[C@@H](NC(=O)[C@H](Cc1ccccc1)NC(=O)[C@@H](NC(=O)CNC(=O)[C@H](CCC(=O)O)NC(=O)[C@H](C)NC(=O)[C@@H](N)Cc1cnc[nH]1)[C@@H](C)O)[C@@H](C)O)C(C)C)C(=O)N[C@@H](CCC(=O)O)C(=O)N[C@@H](Cc1ccccc1)C(=O)N[C@H](C(=O)N[C@@H](C)C(=O)N[C@@H](Cc1c[nH]c2ccccc12)C(=O)N[C@@H](CC(C)C)C(=O)N[C@H](C(=O)N[C@@H](CCCNC(=N)N)C(=O)NCC(=O)N[C@@H](CCCNC(=N)N)C(=O)NCC(=O)O)C(C)C)[C@@H](C)CC)C(=O)O [LIRAGLUTIDE] |  |  |  |  |  |  |  |  |  |  |  |  |  |  | Activity (Rattus norvegicus [26]): 93.9%
